Test results reported in ChEMBL document CHEMBL4028827, “Discovery of indazole aldosterone synthase (CYP11B2) inhibitors as potential treatments for hypertension” (Bioorg Med Chem Lett, 2017).
pIC50: −log10 of the molar value.

How the values were obtained:
[1] = target: T1, Cytochrome P450 11B1, mitochondrial (Homo sapiens, UniProt P15538); assay: Inhibition of human CYP11B1-8C7 expressed in Chinese hamster V79 cells using 11-deoxycortisol as substrate preincubated for 1 hr followed by substrate addition measured for 3 hrs by HTRF assay; assay type: ADME, cell-based
T1 sequence (P15538 whole entry): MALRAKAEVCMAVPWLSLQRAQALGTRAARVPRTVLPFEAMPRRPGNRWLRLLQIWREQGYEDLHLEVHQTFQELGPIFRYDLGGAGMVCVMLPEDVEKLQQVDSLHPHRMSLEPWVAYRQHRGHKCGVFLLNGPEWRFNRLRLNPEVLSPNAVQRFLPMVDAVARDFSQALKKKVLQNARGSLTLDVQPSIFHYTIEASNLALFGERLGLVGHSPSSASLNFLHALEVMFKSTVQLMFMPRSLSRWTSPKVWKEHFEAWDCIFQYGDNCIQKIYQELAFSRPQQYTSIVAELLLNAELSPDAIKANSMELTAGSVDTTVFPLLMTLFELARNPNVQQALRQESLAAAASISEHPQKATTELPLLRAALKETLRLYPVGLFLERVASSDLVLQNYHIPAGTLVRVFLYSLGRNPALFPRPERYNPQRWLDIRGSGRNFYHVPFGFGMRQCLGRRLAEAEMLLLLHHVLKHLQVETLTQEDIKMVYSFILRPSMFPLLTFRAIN

[2] = Selectivity ratio of IC50 for human CYP11B1-8C7 expressed in Chinese hamster V79 cells to IC50 for human CYP11B2-CLE9 expressed in Chinese hamster V79 cells
[3] = target: T2, Cytochrome P450 11B2, mitochondrial (Rattus norvegicus, UniProt P30099); assay: Inhibition of rat CYP11B2-1F4 expressed in Chinese hamster V79 cells using 11-deoxycorticosterone as substrate preincubated for 1 hr followed by substrate addition measured for 3 hrs by HTRF assay; assay type: cell-based
T2 sequence (P30099 whole entry): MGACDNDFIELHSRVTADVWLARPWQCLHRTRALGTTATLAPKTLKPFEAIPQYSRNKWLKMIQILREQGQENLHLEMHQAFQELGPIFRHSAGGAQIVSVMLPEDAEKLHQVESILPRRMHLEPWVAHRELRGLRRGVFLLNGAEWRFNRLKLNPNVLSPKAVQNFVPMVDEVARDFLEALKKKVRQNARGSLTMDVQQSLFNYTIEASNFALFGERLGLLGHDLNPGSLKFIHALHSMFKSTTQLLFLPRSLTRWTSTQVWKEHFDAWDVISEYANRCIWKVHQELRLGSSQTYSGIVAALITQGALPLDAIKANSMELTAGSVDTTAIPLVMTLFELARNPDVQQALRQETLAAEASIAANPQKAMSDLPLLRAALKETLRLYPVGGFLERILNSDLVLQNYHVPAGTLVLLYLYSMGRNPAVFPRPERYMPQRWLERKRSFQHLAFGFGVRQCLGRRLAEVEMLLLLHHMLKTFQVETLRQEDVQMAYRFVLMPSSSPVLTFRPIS

[4] = target: Cytochrome P450 3A4 (Homo sapiens, UniProt P08684); assay: Inhibition of hepatic CYP3A4 (unknown origin); assay type: ADME
Chain of Cytochrome P450 3A4 (P08684 whole entry): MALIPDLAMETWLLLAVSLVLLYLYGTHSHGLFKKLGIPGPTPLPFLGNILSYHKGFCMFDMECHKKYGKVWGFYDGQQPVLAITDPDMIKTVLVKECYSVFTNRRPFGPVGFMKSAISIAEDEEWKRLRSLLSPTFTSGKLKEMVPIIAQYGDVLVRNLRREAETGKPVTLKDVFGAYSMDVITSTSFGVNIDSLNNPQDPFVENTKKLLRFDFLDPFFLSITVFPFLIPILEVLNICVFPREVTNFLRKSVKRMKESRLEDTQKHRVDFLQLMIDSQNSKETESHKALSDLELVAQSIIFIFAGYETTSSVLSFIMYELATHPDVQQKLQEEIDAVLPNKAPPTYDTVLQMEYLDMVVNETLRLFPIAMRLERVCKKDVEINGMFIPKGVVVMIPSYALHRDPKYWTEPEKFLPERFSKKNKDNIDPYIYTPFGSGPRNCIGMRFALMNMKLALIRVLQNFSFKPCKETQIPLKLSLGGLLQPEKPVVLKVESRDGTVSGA

For CC(C)(O)c1cncc(-n2ncc3c(C(F)(F)F)cccc32)c1, the pIC50 [1] was 7.01, the “Ratio IC50” value [2] was 44 and the pIC50 [3] was 8.66. The pIC50 [4] was 4.37.
